Reference: US7589123B2, “Chemical compounds” (Phytopharm PLC, priority 2006, dated 2009)

Experiments:
TRPV1 receptor [1] = molecular target: T1, TRPV1 receptor (Rattus norvegicus, UniProt O35433); test: TRPV1 receptor modulation in the rat vas deferens, EFS-induced contraction (Assay 1); conditions: electrical field stimulation, read-out: Inhibition of EFS response relative to capsaicin
Protocol: Wistar derived male rats (275±25 g) were suppressed by CO2 overexposure. The vas deferens was removed, placed in Krebs solution, pH 7.4 (composition in g/l: NaCl 6.89, KCl 0.35, CaCl2 0.277, KH2PO4 0.163, MgSO4.7H2O 0.296, NaHCO3 2.1 glucose 1.8) and excess fat and connective tissue removed. The portion of the vas deferens closest to the prostate was cut in half and each half was placed under 1 g tension in a 10 ml bath containing Krebs solution at 32° C. The tissue was contracted by electrical field stimulation (EFS; 60% of maximum stimulation, 0.015 Hz, 0.5 ms in duration) and contractile responses were measured.

WI-38 cells = test: Viability of WI-38 cells, Alamar Blue (Assay 5); assay type: cell-based, human
Method in brief: (§1)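 Cell viability was read by Alamar Blue fluorescence (530/590 nm) after 4 h at 37 °C, following an overnight 37 °C incubation of human lung fibroblasts with 1 nM IL-1α and compound (3 or 30 μM) in 10% FBS MEM, pH 7.3. Supernatant PGE2 was measured by radioimmunoassay to derive percent inhibition.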

TRPV1 receptor [2] = molecular target: T1, TRPV1 receptor; test: TRPV1 modulation in DRG neurones: CGRP release in absence and presence of capsaicin (Assay 2); assay type: cell-based; parameters: The culture used for this experiment contained sensory neurones, Schwann cells and fibroblasts; endogenous in cells; host or cells: primary rat DRG sensory neurone culture (with Schwann cells and fibroblasts); conditions: 20 min; for inhibition at 3 µM: 3 μM with capsaicin 1 μM; for inhibition at 3 µM / inhibition at 30 µM: −ve: inhibition, +ve: potentiation of capsaicin response, read-out: Effect of test compounds on capsaicin (1 μM)-induced CGRP release (%); for inhibition at 30 µM: 30 μM with capsaicin 1 μM; for Emax at 3 µM: test compound alone 3 μM; for Emax at 3 µM / Emax at 30 µM: rat DRG sensory neurones, read-out: CGRP release (% of capsaicin (1 μM) response); for Emax at 30 µM: test compound alone 30 μM
[3] = system: histamine-induced contractions in guinea pig ileum; test: Inhibition of histamine-induced contractions in guinea pig ileum (Assay 3); conditions: Cavia porcellus, histamine 1.7 μM, read-out: Inhibition of histamine-induced contraction (%)
Method in brief: (§2)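 Ileal strips from male Duncan Hartley guinea pigs were held at 1 g tension in 32° C oxygenated Krebs (pH 7.4) with isotonic transducers. After control contractions to 5-HT (2.6 μM) or histamine (1.7 μM), compound at 3 and 30 μM was added, its own effect noted, and agonist re-applied.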

[4] = system: α-smooth muscle actin (α-SMA) mRNA; test: Anti-remodelling activity in human lung fibroblasts (HFL1): TGFβ-induced α-SMA mRNA (Assay 4); assay type: cell-based; conditions: Homo sapiens, HFL1 cells, TGFβ 10 ng/ml, 24 h, read-out: Inhibition of α-SMA mRNA synthesis (%)
Method in brief: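 Real-time RT-PCR of α-SMA mRNA, GAPDH as reference, measured after 24 h exposure of low-serum-primed HFL1 cells to 10 ng/ml TGFβ with test compounds (3 and 30 μM) in 10% FBS medium. Readout is inhibition of TGFβ-driven α-SMA mRNA overexpression.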

5-lipoxygenase = molecular target: T2, 5-lipoxygenase (Homo sapiens, UniProt P09917); test: 5-lipoxygenase activity (LTB4) in human peripheral blood mononuclear leukocytes (Assay 6); assay type: cell-based; conditions: human PBMLs, A23187 30 μM, read-out: Inhibition of 5-LO (%)
T2 construct: endogenous in cells; host or cells: human peripheral blood mononuclear leukocytes (PBMLs)
T2 sequence (P09917 1-674): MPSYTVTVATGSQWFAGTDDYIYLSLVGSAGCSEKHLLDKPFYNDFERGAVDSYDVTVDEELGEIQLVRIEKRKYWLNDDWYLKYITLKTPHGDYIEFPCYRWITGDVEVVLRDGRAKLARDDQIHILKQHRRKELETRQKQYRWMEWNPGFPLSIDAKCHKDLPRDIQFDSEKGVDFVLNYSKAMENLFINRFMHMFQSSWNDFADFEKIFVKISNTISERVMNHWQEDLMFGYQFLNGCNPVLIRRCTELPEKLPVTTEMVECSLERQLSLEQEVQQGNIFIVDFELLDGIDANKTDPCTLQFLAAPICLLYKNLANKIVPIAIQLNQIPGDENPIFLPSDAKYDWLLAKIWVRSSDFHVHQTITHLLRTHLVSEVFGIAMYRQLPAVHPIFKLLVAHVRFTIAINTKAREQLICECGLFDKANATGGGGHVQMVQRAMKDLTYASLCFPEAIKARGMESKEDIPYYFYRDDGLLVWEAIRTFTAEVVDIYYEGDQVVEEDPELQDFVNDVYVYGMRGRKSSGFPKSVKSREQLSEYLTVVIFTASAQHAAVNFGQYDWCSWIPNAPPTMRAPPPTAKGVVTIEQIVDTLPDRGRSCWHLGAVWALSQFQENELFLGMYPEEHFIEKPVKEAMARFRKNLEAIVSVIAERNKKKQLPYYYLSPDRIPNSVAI
Method in brief: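 LTB4 in supernatant quantified by EIA after 15 min at 37° C. in HBSS, pH 7.4, where Ficoll-isolated human PBMLs (5×10^6) received ionophore A23187 (30 μM) and test compound (3 and 30 μM) or 0.1% DMSO vehicle.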

[5] = system: 5-HT-induced contractions in guinea pig ileum; test: Inhibition of 5-HT-induced contractions in guinea pig ileum (Assay 3); conditions: Cavia porcellus, 5-HT 2.6 μM, read-out: Inhibition of 5-HT-induced contraction (%)
Method in brief: as §2

[6] = system: IL-1α-induced PGE2 release; test: IL-1α-induced PGE2 release in human diploid lung fibroblasts (WI-38) (Assay 5); assay type: cell-based; conditions: Homo sapiens, WI-38 cells, IL-1α 1 nM, overnight
Method in brief: as §1

T1 sequence (O35433 whole entry): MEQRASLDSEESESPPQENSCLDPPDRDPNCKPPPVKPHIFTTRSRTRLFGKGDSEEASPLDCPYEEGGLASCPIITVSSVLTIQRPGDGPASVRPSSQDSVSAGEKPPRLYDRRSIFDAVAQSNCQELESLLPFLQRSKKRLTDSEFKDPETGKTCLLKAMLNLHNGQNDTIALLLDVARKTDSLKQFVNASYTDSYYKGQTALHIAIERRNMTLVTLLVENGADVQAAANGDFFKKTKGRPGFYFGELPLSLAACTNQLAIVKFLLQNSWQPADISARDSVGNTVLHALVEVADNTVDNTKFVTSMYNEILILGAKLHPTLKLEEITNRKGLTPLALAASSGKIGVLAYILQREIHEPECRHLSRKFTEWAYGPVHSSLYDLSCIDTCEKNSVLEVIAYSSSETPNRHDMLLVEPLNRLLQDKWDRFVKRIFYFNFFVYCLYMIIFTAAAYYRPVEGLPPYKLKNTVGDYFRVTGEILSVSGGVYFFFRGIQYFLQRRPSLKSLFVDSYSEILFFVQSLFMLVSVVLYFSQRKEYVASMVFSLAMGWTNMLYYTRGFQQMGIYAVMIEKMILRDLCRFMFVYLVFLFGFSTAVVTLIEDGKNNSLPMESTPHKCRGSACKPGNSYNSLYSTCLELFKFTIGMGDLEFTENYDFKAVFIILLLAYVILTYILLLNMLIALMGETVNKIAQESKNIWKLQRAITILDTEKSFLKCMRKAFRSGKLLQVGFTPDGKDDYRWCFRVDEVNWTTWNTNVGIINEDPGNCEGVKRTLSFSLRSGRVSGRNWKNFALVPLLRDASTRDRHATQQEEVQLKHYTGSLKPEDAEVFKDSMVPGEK

## COc1cc(/C=C/C(=O)C(C)C(=O)c2ccccc2)ccc1O (centres unmarked) [Compound 43, (E)-5-(4-Hydroxy-3-methoxyphenyl)-2-methyl-1-phenyl-pent-4-ene-1,3-dione]
TRPV1 receptor [1]
  Emax: -13%

## COc1cc(CCC(=O)CC(=O)C2CCCC2)ccc1O [Compound 8, 1-Cyclopentyl-5-(4-hydroxy-3-methoxyphenyl)-pentane-1,3-dione]
TRPV1 receptor [1]
  Emax: 36%

## COc1cc(CCC(=O)CC(=O)C2(C)CCCCC2)ccc1O [Compound 10, 5-(4-Hydroxy-3-methoxy-phenyl)-1-(1-methyl-cyclohexyl)-pentane-1,3-dione]
TRPV1 receptor [1]
  Emax: 16%

## COc1cc(CCC(=O)CC(=O)c2ccc3ccccc3c2)ccc1O [Compound 26, 5-(4-Hydroxy-3-methoxyphenyl)-1-(naphthalene-2-yl)-pentane-1,3-dione]
WI-38 cells; 3 μM
  Decrease in cell viability (%): 3%
WI-38 cells; 30 μM
  Decrease in cell viability (%): 10%
TRPV1 receptor [2]
  inhibition at 3 µM: 47%
  inhibition at 30 µM: -31%
  Emax at 3 µM: 66%
  Emax at 30 µM: 248%
[3]
  inhibition at 3 µM: 3%
  inhibition at 30 µM: 34%
other
  melting point: 101 to 102 °C
[4]
  inhibition at 3 µM: 2%
  inhibition at 30 µM: 64%
5-lipoxygenase
  inhibition at 3 µM: 60%
  inhibition at 30 µM: 98%
[5]
  inhibition at 3 µM: 7%
  inhibition at 30 µM: 40%
[6]
  inhibition at 3 µM: 81%
  inhibition at 30 µM: 100%

## COc1cc(/C=C/C(=O)CC(=O)C2(C)CC2)ccc1O [Compound 38, (E)-5-(4-Hydroxy-3-methoxylphenyl)-1-(1-methylcyclopropyl)-pent-4-ene-1,3-dione]
other
  melting point: 78 to 80 °C
TRPV1 receptor [1]
  Emax: -36%

## COc1cc(CCC(=O)CC(=O)c2ccc(-c3ccccc3)cc2)ccc1O [Compound 18, 1-(Biphenyl-4-yl)-5-(4-hydroxy-3-methoxyphenyl)-pentane-1,3-dione]
WI-38 cells; 3 μM
  Decrease in cell viability (%): 3%
WI-38 cells; 30 μM
  Decrease in cell viability (%): 15%
TRPV1 receptor [2]
  inhibition at 3 µM: 10%
  inhibition at 30 µM: -12%
  Emax at 3 µM: 146%
  Emax at 30 µM: 146%
[3]
  inhibition at 3 µM: 0%
  inhibition at 30 µM: 7%
other
  melting point: 118 to 119 °C
[4]
  inhibition at 3 µM: 13%
  inhibition at 30 µM: 79%
5-lipoxygenase
  inhibition at 3 µM: 58%
  inhibition at 30 µM: 94%
[5]
  inhibition at 3 µM: 0%
  inhibition at 30 µM: 3%
[6]
  inhibition at 3 µM: 86%
  inhibition at 30 µM: 99%

## COc1cc(CCC(=O)CC(=O)CC(C)(C)C)ccc1O [Compound 3, 7,7-Dimethyl-1-(4-hydroxy-3-methoxyphenyl)-octane-3,5-dione]
TRPV1 receptor [1]
  Emax: 63%

## COc1cc(/C=C/C(=O)CC(=O)C(C)C)ccc1O [Compound 33, (E)-1-(4-Hydroxy-3-methoxyphenyl)-6-methyl-hept-1-ene-3,5-dione]
TRPV1 receptor [1]
  Emax: -12%

## COc1cc(/C=C/C(=O)CC(=O)C2CCCC2)ccc1O [Compound 40, (E)-1-Cyclopentyl-5-(4-hydroxy-3-methoxyphenyl)-pent-4-ene-1,3-dione]
TRPV1 receptor [1]
  Emax: -82%

## COc1cc(/C=C/C(=O)CC(=O)CC(C)(C)C)ccc1O [Compound 35, (E)-7,7-Dimethyl-1-(4-hydroxy-3-methoxyphenyl)-oct-1-ene-3,5-dione]
other
  melting point: 130 to 132 °C
TRPV1 receptor [1]
  Emax: 25%

## COc1cc(/C=C/C(=O)CC(=O)c2ccccc2)ccc1O [Compound 68, (E)-5-(4-Hydroxy-3-methoxyphenyl)-1-phenyl-pent-4-ene-1,3-dione]
other
  melting point: 159 to 161.5 °C
TRPV1 receptor [1]
  Emax: 14%

## COc1cc(/C=C/C(=O)CC(=O)C2(C)CCCCC2)ccc1O [Compound 42, (E)-5-(4-Hydroxy-3-methoxyphenyl)-1-(1-methylcyclohexyl)-pent-4-ene-1,3-dione]
TRPV1 receptor [1]
  Emax: 6%

## COc1cc(/C=C/C(=O)CC(=O)C(C)(C)C)ccc1O [Compound 34, (E)-1-(4-Hydroxy-3-methoxylphenyl)-6,6-dimethyl-hept-1-ene-3,5-dione]
WI-38 cells; 3 μM
  Decrease in cell viability (%): 3%
WI-38 cells; 30 μM
  Decrease in cell viability (%): 5%
[3]
  inhibition at 3 µM: 11%
  inhibition at 30 µM: 22%
TRPV1 receptor [1]
  Emax: -15%
[5]
  inhibition at 3 µM: 2%
  inhibition at 30 µM: 43%
[6]
  inhibition at 3 µM: 72%
  inhibition at 30 µM: 109%
